Laboratory results published in patent US11622991B2, “Protocol for treatment of lupus nephritis” (Aurinia Pharmaceuticals Inc., priority 2017, dated 2023).

Tested on: lupus nephritis
Assay: Predictability of week 48 partial remission from early reduction in UPCR (Tables 4-8)
Type: in vivo, human
Procedure: In the study reported in Example 1, the predictability of outcomes based on markers at early time points were determined.
This is important because it is undesirable to subject a patient to unnecessary treatment, even if the treatment is relatively safe.
PR is defined as at least 50% reduction in proteinuria (i.e. UPCR).
Sensitivity is defined as the probability that a subject showing PR at 48 weeks would have shown a favorable result with regard to the marker at the designated early time point. In the tables below, this is the ratio of the number of subjects with favorable marker results (early drop or normalization) to the total subjects with 48 week PR.
Specificity is defined as the probability that a subject not showing PR at 48 weeks would have shown an unfavorable result with regard to the marker at the designated early time point. In the tables below, this is the ratio of the number of subjects with unfavorable marker results (no early drop or no normalization) to the total subjects with no 48 week PR.
Positive predictive value is defined as the probability that a subject showing a favorable result with respect to the marker at an earlier time point would show PR at 48 weeks. In the tables below, this is the ratio of the number of subjects with favorable marker results who have 48 week PR to those with favorable marker results (early reduction or yes column).
Negative predictive value is defined as the probability that a subject showing an unfavorable result with respect to the marker at an earlier time point would not show PR at 48 weeks. In the tables below, this is the ratio of the number of subjects with unfavorable marker results who have no PR at 48 weeks to the total subjects with unfavorable marker results (no early reduction or no column).

[1] = 15% reduction in UPCR, Week 2, 23.7 mg BID
[2] = 15% reduction in UPCR, Week 2, 39.5 mg BID
[3] = 15% reduction in UPCR, Week 4, 23.7 mg BID
[4] = 15% reduction in UPCR, Week 6, 39.5 mg BID
[5] = 15% reduction in UPCR, Week 8, 39.5 mg BID
[6] = 15% reduction in UPCR, Week 12, 23.7 mg BID
[7] = 15% reduction in UPCR, Week 12, 39.5 mg BID
[8] = 15% reduction in UPCR, Week 16, 23.7 mg BID
[9] = 15% reduction in UPCR, Week 20, 23.7 mg BID
[10] = 15% reduction in UPCR, Week 20, 39.5 mg BID
[11] = 15% reduction in UPCR, Week 24, 23.7 mg BID
[12] = 15% reduction in UPCR, Week 26, 23.7 mg BID
[13] = 15% reduction in UPCR, Week 26, 39.5 mg BID
[14] = 15% reduction in UPCR, Week 36, 23.7 mg BID
[15] = 15% reduction in UPCR, Week 36, 39.5 mg BID
[16] = 15% reduction in UPCR, Week 48, 23.7 mg BID
[17] = 20% reduction in UPCR, Week 2, 23.7 mg BID
[18] = 20% reduction in UPCR, Week 2, 39.5 mg BID
[19] = 20% reduction in UPCR, Week 4, 23.7 mg BID
[20] = 20% reduction in UPCR, Week 6, 23.7 mg BID
[21] = 20% reduction in UPCR, Week 8, 23.7 mg BID
[22] = 20% reduction in UPCR, Week 8, 39.5 mg BID
[23] = 20% reduction in UPCR, Week 12, 23.7 mg BID
[24] = 20% reduction in UPCR, Week 12, 39.5 mg BID
[25] = 20% reduction in UPCR, Week 16, 23.7 mg BID
[26] = 20% reduction in UPCR, Week 20, 23.7 mg BID
[27] = 20% reduction in UPCR, Week 20, 39.5 mg BID
[28] = 20% reduction in UPCR, Week 24, 23.7 mg BID
[29] = 20% reduction in UPCR, Week 26, 23.7 mg BID
[30] = 20% reduction in UPCR, Week 26, 39.5 mg BID
[31] = 20% reduction in UPCR, Week 36, 23.7 mg BID
[32] = 20% reduction in UPCR, Week 36, 39.5 mg BID
[33] = 20% reduction in UPCR, Week 48, 23.7 mg BID
[34] = 25% reduction in UPCR, Week 2, 23.7 mg BID
[35] = 25% reduction in UPCR, Week 2, 39.5 mg BID
[36] = 25% reduction in UPCR, Week 4, 23.7 mg BID
[37] = 25% reduction in UPCR, Week 6, 23.7 mg BID
[38] = 25% reduction in UPCR, Week 8, 23.7 mg BID
[39] = 25% reduction in UPCR, Week 8, 39.5 mg BID
[40] = 25% reduction in UPCR, Week 12, 23.7 mg BID
[41] = 25% reduction in UPCR, Week 12, 39.5 mg BID
[42] = 25% reduction in UPCR, Week 16, 23.7 mg BID
[43] = 25% reduction in UPCR, Week 20, 23.7 mg BID
[44] = 25% reduction in UPCR, Week 20, 39.5 mg BID
[45] = 25% reduction in UPCR, Week 24, 23.7 mg BID
[46] = 25% reduction in UPCR, Week 24, 39.5 mg BID

## C=C/C=C/C[C@@H](C)[C@@H](O)[C@H]1C(=O)N[C@@H](CC)C(=O)N(C)CC(=O)N(C)[C@@H](CC(C)C)C(=O)N[C@@H](C(C)C)C(=O)N(C)[C@@H](CC(C)C)C(=O)N[C@@H](C)C(=O)N[C@H](C)C(=O)N(C)[C@@H](CC(C)C)C(=O)N(C)[C@@H](CC(C)C)C(=O)N(C)[C@@H](C(C)C)C(=O)N1C [voclosporin]
[1]
  Early Reduction No: 30
  No Week 48 Partial Remission Early Drop: 10
  Week 48 Partial Remission No Early Drop: 16
[2]
  Early Reduction No: 30
  No Week 48 Partial Remission No Early Drop: 9
[3]
  No Week 48 Partial Remission No Early Drop: 11
  Week 48 Partial Remission No Early Drop: 9
[4]
  No Week 48 Partial Remission No Early Drop: 4
  Week 48 Partial Remission No Early Drop: 10
15% reduction in UPCR, Week 8, 23.7 mg BID
  No Week 48 Partial Remission No Early Drop: 7
[5]
  Early Reduction No: 9
  No Week 48 Partial Remission No Early Drop: 4
[6]
  No Week 48 Partial Remission No Early Drop: 4
  Week 48 Partial Remission No Early Drop: 2
[7]
  Early Reduction No: 9
  No Week 48 Partial Remission No Early Drop: 4
[8]
  Early Reduction No: 8
  Week 48 Partial Remission No Early Drop: 3
15% reduction in UPCR, Week 16, 39.5 mg BID
  Early Reduction No: 11
[9]
  Early Reduction No: 3
  No Week 48 Partial Remission No Early Drop: 3
[10]
  Early Reduction No: 9
  Week 48 Partial Remission No Early Drop: 4
[11]
  Early Reduction No: 2
  No Week 48 Partial Remission No Early Drop: 2
15% reduction in UPCR, Week 24, 39.5 mg BID
  Early Reduction No: 10
[12]
  Early Reduction No: 3
  No Week 48 Partial Remission Early Drop: 9
  No Week 48 Partial Remission No Early Drop: 3
[13]
  Early Reduction No: 4
  No Week 48 Partial Remission No Early Drop: 4
[14]
  Early Reduction No: 4
  No Week 48 Partial Remission Early Drop: 10
  No Week 48 Partial Remission No Early Drop: 3
  Week 48 Partial Remission No Early Drop: 1
[15]
  Early Reduction No: 7
  Week 48 Partial Remission No Early Drop: 1
[16]
  Early Reduction No: 2
  No Week 48 Partial Remission Early Drop: 9
  No Week 48 Partial Remission No Early Drop: 2
15% reduction in UPCR, Week 48, 39.5 mg BID
  No Week 48 Partial Remission Early Drop: 10
[17]
  Early Reduction No: 33
  No Week 48 Partial Remission Early Drop: 8
  No Week 48 Partial Remission No Early Drop: 16
[18]
  Early Reduction No: 34
  No Week 48 Partial Remission No Early Drop: 10
[19]
  No Week 48 Partial Remission No Early Drop: 11
  Week 48 Partial Remission No Early Drop: 10
[20]
  No Week 48 Partial Remission Early Drop: 11
  No Week 48 Partial Remission No Early Drop: 7
20% reduction in UPCR, Week 6, 39.5 mg BID
  Week 48 Partial Remission No Early Drop: 10
[21]
  No Week 48 Partial Remission Early Drop: 11
  No Week 48 Partial Remission No Early Drop: 8
[22]
  Early Reduction No: 10
  No Week 48 Partial Remission No Early Drop: 4
[23]
  Early Reduction No: 7
  Week 48 Partial Remission No Early Drop: 2
[24]
  Early Reduction No: 9
  No Week 48 Partial Remission No Early Drop: 4
[25]
  Early Reduction No: 9
  Week 48 Partial Remission No Early Drop: 3
20% reduction in UPCR, Week 16, 39.5 mg BID
  Early Reduction No: 11
[26]
  Early Reduction No: 4
  No Week 48 Partial Remission No Early Drop: 4
[27]
  Early Reduction No: 9
  Week 48 Partial Remission No Early Drop: 4
[28]
  Early Reduction No: 4
  No Week 48 Partial Remission Early Drop: 11
  No Week 48 Partial Remission No Early Drop: 3
  Week 48 Partial Remission No Early Drop: 1
20% reduction in UPCR, Week 24, 39.5 mg BID
  Early Reduction No: 11
[29]
  Early Reduction No: 3
  No Week 48 Partial Remission Early Drop: 9
  No Week 48 Partial Remission No Early Drop: 3
[30]
  Early Reduction No: 4
  No Week 48 Partial Remission No Early Drop: 4
[31]
  Early Reduction No: 4
  No Week 48 Partial Remission Early Drop: 10
  No Week 48 Partial Remission No Early Drop: 3
  Week 48 Partial Remission No Early Drop: 1
[32]
  Early Reduction No: 8
  Week 48 Partial Remission No Early Drop: 2
[33]
  Early Reduction No: 2
  No Week 48 Partial Remission Early Drop: 9
  No Week 48 Partial Remission No Early Drop: 2
20% reduction in UPCR, Week 48, 39.5 mg BID
  No Week 48 Partial Remission Early Drop: 10
[34]
  No Week 48 Partial Remission Early Drop: 8
  No Week 48 Partial Remission No Early Drop: 16
[35]
  No Week 48 Partial Remission No Early Drop: 10
  Week 48 Partial Remission Early Drop: 33
[36]
  No Week 48 Partial Remission No Early Drop: 11
  Week 48 Partial Remission No Early Drop: 11
25% reduction in UPCR, Week 4, 39.5 mg BID
  Week 48 Partial Remission No Early Drop: 16
[37]
  No Week 48 Partial Remission Early Drop: 10
  No Week 48 Partial Remission No Early Drop: 8
  Week 48 Partial Remission No Early Drop: 8
[38]
  No Week 48 Partial Remission Early Drop: 10
  No Week 48 Partial Remission No Early Drop: 9
[39]
  Early Reduction No: 10
  No Week 48 Partial Remission No Early Drop: 4
[40]
  Early Reduction No: 10
  Week 48 Partial Remission No Early Drop: 4
[41]
  Early Reduction No: 9
  No Week 48 Partial Remission No Early Drop: 4
[42]
  Early Reduction No: 10
  No Week 48 Partial Remission Early Drop: 11
  No Week 48 Partial Remission No Early Drop: 7
  Week 48 Partial Remission No Early Drop: 3
25% reduction in UPCR, Week 16, 39.5 mg BID
  Week 48 Partial Remission No Early Drop: 7
[43]
  No Week 48 Partial Remission Early Drop: 11
  Week 48 Partial Remission No Early Drop: 1
[44]
  Early Reduction No: 9
  Week 48 Partial Remission No Early Drop: 4
[45]
  Early Reduction No: 4
  No Week 48 Partial Remission Early Drop: 11
  No Week 48 Partial Remission No Early Drop: 3
  Week 48 Partial Remission No Early Drop: 1
[46]
  No Week 48 Partial Remission No Early Drop: 7
  Week 48 Partial Remission No Early Drop: 7
25% reduction in UPCR, Week 26, 23.7 mg BID
  Early Reduction No: 4
